Test results taken from the supplement of paper PMC10307832.

Columns and labels:
Assay in all cases: relative viability (nuclei count vs DMSO), 5 days (fraction); higher = more cells survive
BI-D1870 + Luminespib = compound: CC(C)CCN1c2nc(Nc3cc(F)c(O)c(F)c3)ncc2N(C)C(=O)C1C [BI-D1870] + CCNC(=O)c1noc(-c2cc(C(C)C)c(O)cc2O)c1-c1ccc(CN2CCOCC2)cc1 [Luminespib] (partner 0.01 µM)
How it was run: (§1)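 Relative viability is defined as nuclei in treated wells over nuclei in vehicle wells. Duplicate plates were run and medians reported. Lung cancer cell lines in 1536-well plates were dosed by pin tool one day after seeding, with one drug or with a fixed anchor-drug dose plus five library-drug doses (not always all listed) in √10 steps, and nuclei were counted after 5 days.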

BI-D1870 + Olaparib = compound: CC(C)CCN1c2nc(Nc3cc(F)c(O)c(F)c3)ncc2N(C)C(=O)C1C [BI-D1870] + O=C(c1cc(Cc2n[nH]c(=O)c3ccccc23)ccc1F)N1CCN(C(=O)C2CC2)CC1 [Olaparib] (partner 8 µM)
How it was run: as §1

Zebularine + Pictilisib = compound: O=c1ncccn1[C@@H]1O[C@H](CO)[C@@H](O)[C@H]1O [Zebularine] + CS(=O)(=O)N1CCN(Cc2cc3nc(-c4cccc5[nH]ncc45)nc(N4CCOCC4)c3s2)CC1 [Pictilisib] (partner 1 µM)
How it was run: as §1

Zebularine + AZD7762 = compound: O=c1ncccn1[C@@H]1O[C@H](CO)[C@@H](O)[C@H]1O [Zebularine] + NC(=O)Nc1cc(-c2cccc(F)c2)sc1C(=O)N[C@H]1CCCNC1 [AZD7762] (partner 0.2 µM)
How it was run: as §1

| Cell Line | relative viability (BI-D1870 + Luminespib; first compound 0.04 µM) | relative viability (BI-D1870 + Luminespib; first compound 0.1265 µM) | relative viability (BI-D1870 + Luminespib; first compound 0.4 µM) | relative viability (BI-D1870 + Luminespib; first compound 1.265 µM) | relative viability (BI-D1870 + Luminespib; first compound 4 µM) | relative viability (BI-D1870 + Olaparib; first compound 0.04 µM) | relative viability (BI-D1870 + Olaparib; first compound 0.1265 µM) | relative viability (BI-D1870 + Olaparib; first compound 0.4 µM) | relative viability (BI-D1870 + Olaparib; first compound 1.265 µM) | relative viability (BI-D1870 + Olaparib; first compound 4 µM) | relative viability (Zebularine + Pictilisib; first compound 1 µM) | relative viability (Zebularine + Pictilisib; first compound 3.162 µM) | relative viability (Zebularine + Pictilisib; first compound 10 µM) | relative viability (Zebularine + Pictilisib; first compound 31.62 µM) | relative viability (Zebularine + Pictilisib; first compound 100 µM) | relative viability (Zebularine + AZD7762; first compound 1 µM) | relative viability (Zebularine + AZD7762; first compound 3.162 µM) | relative viability (Zebularine + AZD7762; first compound 10 µM) | relative viability (Zebularine + AZD7762; first compound 31.62 µM) | relative viability (Zebularine + AZD7762; first compound 100 µM) |
| --- | --- | --- | --- | --- | --- | --- | --- | --- | --- | --- | --- | --- | --- | --- | --- | --- | --- | --- | --- | --- |
| NCI-H3122 | 0.0791 | 0.0919 | 0.0942 | 0.11 | 0.124 | 0.576 | 0.562 | 0.566 | 0.631 | 0.588 | 0.669 | 0.575 | 0.575 | 0.613 | 0.593 | 1.05 | 1.12 | 0.846 | 1.04 | 1.02 |
| NCI-H2087 | 0.165 | 0.18 | 0.206 | 0.213 | 0.186 | 0.708 | 0.519 | 0.572 | 0.563 | 0.564 | 0.92 | 0.703 | 0.583 | 0.752 | 0.368 | 1.55 | 1.38 | 0.735 | 0.794 | 0.465 |
| LC-2-ad | 1.2 | 0.953 | 0.943 | 0.911 | 0.769 | 0.691 | 0.66 | 0.725 | 0.609 | 0.624 | 0.509 | 0.421 | 0.399 | 0.258 | 0.158 | 0.907 | 0.888 | 0.525 | 0.812 | 0.357 |
| NCI-H1915 | 0.957 | 0.673 | 0.732 | 0.873 | 0.761 | 0.249 | 0.24 | 0.267 | 0.206 | 0.146 | 1.07 | 0.887 | 0.774 | 1.02 | 0.907 | 0.788 | 0.7 | 0.616 | 0.728 | 0.671 |
| NCI-H1793 | 0.176 | 0.16 | 0.194 | 0.146 | 0.167 | 1.05 | 0.708 | 0.799 | 1.02 | 0.898 | 0.472 | 0.372 | 0.205 | 0.269 | 0.267 | 0.499 | 0.676 | 0.326 | 0.407 | 0.359 |
| RERF-LC-KJ | 1.42 | 1.16 | 1.22 | 1.3 | 0.552 | 1.09 | 0.831 | 0.936 | 0.914 | 0.306 | 0.662 | 0.485 | 0.348 | 0.565 | 0.474 | 1.11 | 1 | 0.896 | 1.13 | 0.959 |
| LXF-289 | 0.809 | 0.607 | 0.674 | 0.74 | 0.533 | 1.1 | 1.04 | 1.06 | 1.08 | 0.612 | 0.908 | 0.769 | 0.792 | 0.687 | 0.294 | 1.07 | 1.16 | 1.11 | 0.699 | 0.281 |
| PC-14 | 0.237 | 0.279 | 0.126 | 0.233 | 0.119 | 0.364 | 0.251 | 0.273 | 0.197 | 0.138 | 0.767 | 0.574 | 0.151 | 0.111 | 0.0955 | 0.471 | 0.324 | 0.141 | 0.144 | 0.14 |
| NCI-H650 | 0.867 | 0.641 | 0.732 | 0.918 | 0.481 | 0.443 | 0.375 | 0.366 | 0.369 | 0.315 | 0.886 | 0.868 | 0.445 | 0.374 | 0.27 | 1.03 | 1.04 | 0.908 | 0.551 | 0.317 |
| NCI-H1666 | 1.02 | 0.977 | 1.01 | 1.05 | 0.825 | 0.751 | 0.715 | 0.736 | 0.7 | 0.72 | 0.472 | 0.477 | 0.383 | 0.506 | 0.311 | 0.91 | 0.841 | 0.726 | 0.916 | 0.654 |
| NCI-H2085 | 0.483 | 0.452 | 0.503 | 0.407 | 0.364 | 0.813 | 0.768 | 0.737 | 0.702 | 0.429 | 0.435 | 0.411 | 0.444 | 0.461 | 0.343 | 1.11 | 1.07 | 0.788 | 1.13 | 0.66 |
| NCI-H1734 | 0.19 | 0.175 | 0.188 | 0.187 | 0.222 | 0.684 | 0.545 | 0.605 | 0.673 | 0.463 | 0.505 | 0.385 | 0.341 | 0.333 | 0.303 | 0.638 | 0.575 | 0.366 | 0.495 | 0.306 |
| NCI-H2126 | 0.899 | 0.767 | 0.866 | 0.915 | 0.769 | 0.97 | 0.928 | 0.895 | 0.885 | 0.859 | 0.544 | 0.434 | 0.535 | 0.495 | 0.43 | 0.988 | 0.963 | 0.673 | 0.968 | 0.691 |
